# Results published in US6737383B1, “Herbicidal oxadiazolidines” (priority 1999, dated 2004).
# Legend:
# pigweed = experiment: Test B pre/postemergence pigweed; assay type: in vivo, Amaranthus retroflexus
# Outline: (§1)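 Response is a visual 0-to-10 score relative to untreated plants, where 0 means no effect and 10 means complete control, taken twelve to sixteen days after application. Treatments went onto soil at planting and onto foliage of 1- to 4-leaf plants, using a surfactant-containing non-phytotoxic solvent.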
# purple nutsedge = experiment: Test B pre/postemergence purple nutsedge; assay type: in vivo, Cyperus rotundus
# Outline: as §1
# morningglory = experiment: Test B pre/postemergence morningglory; assay type: in vivo, Ipomoea hederacea
# Outline: as §1
# wild oat = experiment: Test B pre/postemergence wild oat; assay type: in vivo, Avena fatua
# Outline: as §1
# rape = experiment: Test B pre/postemergence rape; assay type: in vivo, Brassica napus
# Outline: as §1
# blackgrass = experiment: Test B pre/postemergence blackgrass; assay type: in vivo, Alopecurus myosuroides
# Outline: as §1
# soybean = experiment: Test B pre/postemergence soybean; assay type: in vivo, Glycine max
# Outline: as §1
# sugar beet = experiment: Test B pre/postemergence sugar beet; assay type: in vivo, Beta vulgaris
# Outline: as §1
# velvetleaf = experiment: Test B pre/postemergence velvetleaf; assay type: in vivo, Abutilon theophrasti
# Outline: as §1
# wheat = experiment: Test B pre/postemergence wheat; assay type: in vivo, Triticum aestivum
# Outline: as §1
# bedstraw = experiment: Test B pre/postemergence bedstraw; assay type: in vivo, Galium aparine
# Outline: as §1
# giant foxtail = experiment: Test B pre/postemergence giant foxtail; assay type: in vivo, Setaria faberii
# Outline: as §1
# [1] = Postemergence, Rate 125 g/ha, scale of 0 to 10 where 0 is no effect and 10 is complete control
# [2] = Preemergence, Rate 62 g/ha, scale of 0 to 10 where 0 is no effect and 10 is complete control
# [3] = Preemergence, Rate 125 g/ha, 0 is no effect, 10 is complete control
# [4] = Preemergence, Rate 250 g/ha, scale 0 to 10, 0 is no effect, 10 is complete control
# [5] = Preemergence, Rate 500 g/ha, scale 0 to 10 (0 no effect, 10 complete control)
# [6] = Rate 62 g/ha, Postemergence, scale of 0 to 10 where 0 is no effect and 10 is complete control
# [7] = Rate 250 g/ha, Postemergence, scale 0 to 10, 0 is no effect, 10 is complete control
# [8] = Rate 500 g/ha, Postemergence, scale 0 to 10
smiles,measurement,setting,value
CC(C)N(C(=O)n1oc(=O)n([C@@H](C)c2ccccc2)c1=O)c1ccc(F)cc1 [Compound 167],Redroot pigweed plant response rating,pigweed; [1],0
same,Redroot pigweed plant response rating,pigweed; [2],0
same,Redroot pigweed plant response rating (0 to 10 scale),pigweed; [3],6
same,Redroot pigweed plant response rating,pigweed; [4],8
same,Redroot pigweed plant response rating,pigweed; [5],8
same,Redroot pigweed plant response rating,pigweed; [6],0
same,"Plant response rating, Redroot pigweed",pigweed; [7],3
same,Redroot pigweed plant response rating,pigweed; [8],7
same,Nutsedge plant response rating,purple nutsedge; [1],0
same,Nutsedge plant response rating,purple nutsedge; [2],0
same,Nutsedge plant response rating (0 to 10 scale),purple nutsedge; [3],0
same,Nutsedge plant response rating,purple nutsedge; [4],0
same,Nutsedge plant response rating,purple nutsedge; [5],0
same,Nutsedge plant response rating,purple nutsedge; [6],0
same,"Plant response rating, Nutsedge",purple nutsedge; [7],0
same,Nutsedge plant response rating,purple nutsedge; [8],0
same,Morningglory plant response rating,morningglory; [1],5
same,Morningglory plant response rating,morningglory; [2],0
same,Morningglory plant response rating (0 to 10 scale),morningglory; [3],0
same,Morningglory plant response rating,morningglory; [4],0
same,Morningglory plant response rating,morningglory; [5],0
same,Morningglory plant response rating,morningglory; [6],2
same,"Plant response rating, Morningglory",morningglory; [7],5
same,Morningglory plant response rating,morningglory; [8],8
same,Wild oats plant response rating,wild oat; [2],0
same,Wild oats plant response rating (0 to 10 scale),wild oat; [3],0
same,Wild oats plant response rating,wild oat; [4],3
same,Wild oats plant response rating,wild oat; [5],6
same,"Plant response rating, Wild oats",wild oat; [7],0
same,Wild oats plant response rating,wild oat; [8],0
same,Rape plant response rating,rape; [1],0
same,Rape plant response rating,rape; [2],0
same,Rape plant response rating (0 to 10 scale),rape; [3],0
same,Rape plant response rating,rape; [4],0
same,Rape plant response rating,rape; [5],5
same,Rape plant response rating,rape; [6],0
same,"Plant response rating, Rape",rape; [7],0
same,Rape plant response rating,rape; [8],0
same,Blackgrass plant response rating,blackgrass; [1],0
same,Blackgrass plant response rating,blackgrass; [2],0
same,Blackgrass plant response rating (0 to 10 scale),blackgrass; [3],0
same,Blackgrass plant response rating,blackgrass; [4],3
same,Blackgrass plant response rating,blackgrass; [5],3
same,Blackgrass plant response rating,blackgrass; [6],0
same,"Plant response rating, Blackgrass",blackgrass; [7],5
same,Blackgrass plant response rating,blackgrass; [8],5
same,Soybean plant response rating,soybean; [1],3
same,Soybean plant response rating,soybean; [2],0
same,Soybean plant response rating (0 to 10 scale),soybean; [3],0
same,Soybean plant response rating,soybean; [4],0
same,Soybean plant response rating,soybean; [5],0
same,Soybean plant response rating,soybean; [6],2
same,"Plant response rating, Soybean",soybean; [7],3
same,Soybean plant response rating,soybean; [8],5
same,Sugarbeets plant response rating,sugar beet; [1],0
same,Sugarbeets plant response rating,sugar beet; [2],0
same,Sugarbeets plant response rating (0 to 10 scale),sugar beet; [3],2
same,Sugarbeets plant response rating,sugar beet; [4],5
same,Sugarbeets plant response rating,sugar beet; [5],5
same,Sugarbeets plant response rating,sugar beet; [6],0
same,"Plant response rating, Sugarbeets",sugar beet; [7],0
same,Sugarbeets plant response rating,sugar beet; [8],0
same,Velvetleaf plant response rating,velvetleaf; [2],0
same,Velvetleaf plant response rating (0 to 10 scale),velvetleaf; [3],0
same,Velvetleaf plant response rating,velvetleaf; [4],0
same,Velvetleaf plant response rating,velvetleaf; [5],3
same,"Plant response rating, Velvetleaf",velvetleaf; [7],0
same,Velvetleaf plant response rating,velvetleaf; [8],2
same,Wheat plant response rating,wheat; [2],0
same,Wheat plant response rating (0 to 10 scale),wheat; [3],0
same,Wheat plant response rating,wheat; [4],0
same,Wheat plant response rating,wheat; [5],0
same,"Plant response rating, Wheat",wheat; [7],0
same,Wheat plant response rating,wheat; [8],0
same,Bedstraw plant response rating,bedstraw; [1],0
same,Bedstraw plant response rating,bedstraw; [2],0
same,Bedstraw plant response rating (0 to 10 scale),bedstraw; [3],0
same,Bedstraw plant response rating,bedstraw; [4],3
same,Bedstraw plant response rating,bedstraw; [5],5
same,Bedstraw plant response rating,bedstraw; [6],0
same,"Plant response rating, Bedstraw",bedstraw; [7],8
same,Giant foxtail plant response rating,giant foxtail; [1],0
same,Giant foxtail plant response rating,giant foxtail; [2],8
same,Giant foxtail plant response rating (0 to 10 scale),giant foxtail; [3],9
same,Giant foxtail plant response rating,giant foxtail; [4],10
same,Giant foxtail plant response rating,giant foxtail; [5],10
same,Giant foxtail plant response rating,giant foxtail; [6],0
same,"Plant response rating, Giant foxtail",giant foxtail; [7],0
same,Giant foxtail plant response rating,giant foxtail; [8],0
